Reference: patent publication US20100210553A1, “USE OF THE PEPTIDE ASN-ASP-ASP-CYS-GLU- LEU-CYS-VAL-ASN-VAL-ALA-CYS-THR-GLY-CYS-LEU ALONE OR IN COMBINATION WITH THE PEPTIDE THR-THR-SER-GLN-VAL- ARG-PRO-ARG AS A THERAPEUTIC AGENT” (priority 2007, published 2010)
Ends that are not written are not given here.

Experiments:
[1] = tested on: hepatitis B virus (HBV) ayw strain; test: HBV experimental assay system (HepG2-2.2.15, TaqMan PCR of secreted HBV DNA); type: cell-based; details: 10 micrograms per ml; HepG2-2.2.15, six days; combination 0.95 mole peptide 1 and 1.05 mole peptide 2
Excerpt: HepG2-2.2.15 is a stable cell line containing the hepatitis B virus (HBV) ayw strain genome (ATCC Cat. No. CRL-11997). Antiviral compounds blocking any late step of viral replication such as transcription, translation, pregenome encapsidation, reverse transcription, particle assembly and release can be identified and characterized using this cell line. In this assay, an active compound will reduce the production of secreted HBV from cells, measured by utilizing real time quantitative PCR (TaqMan) assay to directly and accurately measure HBV DNA copies.
HepG2-2.2.15 cells were plated in 96-well microtiter plates. After 16-24 hours the confluent monolayer of HepG2-2.2.15 cells was washed and the medium was replaced with complete medium containing test peptides—10 micrograms per ml—in duplicate. […] Six days following the initial administration of the peptides, the cell culture supernatants was collected, treated with pronase and DNAse and then used in a real-time quantitative TaqMan PCR assay. The PCR-amplified HBV DNA was detected in real-time by monitoring increases in fluorescence signals that result from the exonucleolytic degradation of a quenched fluorescence probe molecule that hybridizes to the amplified HBV DNA. […] Antiviral activity was calculated from the reduction in HBV DNA levels (% virus control). […]

Streptococcus pneumoniae = Streptococcus pneumoniae assay; type: cell-based; details: 10 micrograms per ml; 5x10^5 CFU/mL, read visually; combination 0.95 mole peptide 1 and 1.05 mole peptide 2 and all other molar ratios from 1:100 to 100:1
murine spleen cells = test: Th1/Th2 cytokine profiling assay (Ovalbumin-restimulated spleen cells, CBA Kit); type: cell-based, mouse; details: 10 micrograms per ml, Ovalbumin restimulation, 72 hours, combination 0.95 mole peptide 1 and 1.05 mole peptide 2
[2] = tested on: Primary Human endothelial cells (HUVEC); test: Endothelial cell migration assay; type: cell-based; details: 10 micrograms per ml, 22 hours
HUVEC = test: Endothelial tube formation assay; type: cell-based, human; details: 10 micrograms per ml, 20 hours
Protocol: The endothelial tube formation assay is based on the ability of endothelial cells to form three-dimensional capillary-like tubular structures when cultured on a gel of basement membrane extract. The endothelial tube formation assay represents a powerful model for studying inhibition and induction of angiogenesis. Pre-labeled HUVEC with Calcein AM were seeded in a 96-well culture plate coated with extracellular metrix (Chemicon international Cat. ECM625) and treated with—10 micrograms per ml—test peptides in full growth medium. Positive control was vehicle only. The endothelial cells were allowed to form tubes for 20 hours and were then examined under an inverted fluorescent microscope. Duplicate wells for each treatment were photographed and quantitatively analyzed for an average tubule length using image analysis software ImageProPlus. Raw data were expressed as average tubule lengths in pixels ±standard deviation. Statistic p values were computed using the Student's t-test.

HCMV strain AD169 = test: HCMV plaque formation assay in MRC-5 cells; details: 10 micrograms per ml, 7-10 days

Substance: Thr-Thr-Ser-Gln-Val-Arg-Pro-Arg-OH (TTSQVRPR-OH) [Peptide 2]
- inhibition of HBV replication as compared to the virus control infection [1]: 31%
- inhibition of the growth of Streptococcus pneumoniae (Streptococcus pneumoniae): 100%
- change of the production of IL-5 (murine spleen cells): did not significantly change
- induction of the production of IFN-γ (murine spleen cells): 47.4%
- induction of the production of IL-2 (murine spleen cells): 24%
- induction of the production of IL-4 (murine spleen cells): 103.9%
- induction of the production of TNF-alpha (murine spleen cells): 43.7%
- inhibition of the migration of human endothelial cells [2]: 13%
- inhibition of the tube formation of human endothelial cells (HUVEC): 24%
- inhibition of HCMV plaque formation as compared to the virus control experiment (HCMV strain AD169): did not inhibit

Substance: Asn-Asp-Asp-Cys-Glu-Leu-Cys-Val-Asn-Val-Ala-Cys-Thr-Gly-Cys-Leu-OH (NDDCELCVNVACTGCL-OH; cysteine pairing not given here) [Peptide 1]
- inhibition of HBV replication as compared to the virus control infection [1]: no effect
- inhibition of the growth of Streptococcus pneumoniae (Streptococcus pneumoniae): 100%
- change of the production of IL-5 (murine spleen cells): did not significantly change
- induction of the production of IFN-γ (murine spleen cells): 80.8%
- induction of the production of IL-2 (murine spleen cells): 66.9%
- induction of the production of IL-4 (murine spleen cells): 143.8%
- induction of the production of TNF-alpha (murine spleen cells): 57.1%
- inhibition of the migration of human endothelial cells [2]: 14%
- inhibition of the tube formation of human endothelial cells (HUVEC): 18%
- inhibition of HCMV plaque formation as compared to the virus control experiment (HCMV strain AD169): did not inhibit
